Literature values, collected in article PMC11571109, “Covalent Inhibitors of S100A4 Block the Formation of a Pro-Metastasis Non-Muscle Myosin 2A Complex” (Journal of Medicinal Chemistry, 2024).

Test system: S100A4
Set-up: method as in PMID 20421509
Details: by inducing oligomerization; read-out: IC50 S100A4 inhibition; cited from earlier work

In the case of `c1ccc2c(c1)Nc1ccccc1S2` [phenothiazine], the IC50 is given as about 100 µM.
